Measured values: patent publication US11566007B2, “Ras inhibitors” (Revolution Medicines, Inc., priority 2019, dated 2023)
“And” between values parts separate entries of the source, which are not always exact repeats. Equal entries are not always repeated.

How the values were obtained:
[1] = test system: NCI-H358 cells (K-Ras G12C); assay: Potency assay: pERK in NCI-H358 cells; format: cell-based, human; settings: Homo sapiens, NCI-H358; H358 KRAS G12C; read-out: pERK EC50
Summary of the method: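 Compounds are dosed as ten 3-fold dilutions from a 10 mM DMSO stock, in duplicate, and left on cells for 4 h at 37 °C, 5% CO2. Phospho-ERK1/2 is then quantified by AlphaLISA SureFire Ultra or In-Cell Western, and IC50 is derived from a 4-parameter sigmoid against log concentration.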

[2] = molecular target: K-Ras G13C (Homo sapiens (Human), UniProt P01116+P62937, G13C); assay: Ras-Raf (BRAF RBD) disruption / FRET / MOA assay, KRAS G13C; format: biochemical; settings: KRAS G13C; Ras-Raf disruption/FRET/MOA assay; read-out: IC50* KRAS G13C FRET data
Sequence of K-Ras G13C (P01116-2 other isoform, or with tags, fused parts or gaps G13C): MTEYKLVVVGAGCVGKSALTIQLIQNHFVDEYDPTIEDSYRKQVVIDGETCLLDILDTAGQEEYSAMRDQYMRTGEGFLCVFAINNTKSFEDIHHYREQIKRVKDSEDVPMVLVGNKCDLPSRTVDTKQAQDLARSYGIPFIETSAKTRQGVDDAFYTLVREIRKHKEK
Sequence of K-Ras G13C (P62937 whole entry): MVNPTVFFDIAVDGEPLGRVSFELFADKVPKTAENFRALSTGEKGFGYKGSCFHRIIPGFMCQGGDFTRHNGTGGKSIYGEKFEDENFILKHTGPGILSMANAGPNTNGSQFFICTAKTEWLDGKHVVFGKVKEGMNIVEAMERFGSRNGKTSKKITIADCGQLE
Summary of the method: (§1)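 Ternary complex formation (Ras–compound–cyclophilin A) displacing BRAF RBD, monitored by TR-FRET. Three hours at 25° C with compound (top 30 μM final), then 1.5 h with the labelled antibodies. Lower ratio than DMSO indicates disruption; IC50 reported.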

[3] = molecular target: KRAS Q61H (Homo sapiens (Human), UniProt P01116+P62937, Q61H); assay: Ras-Raf (BRAF RBD) disruption / FRET / MOA assay, KRAS Q61H; format: biochemical; settings: Ras-Raf disruption/FRET/MOA assay; class symbols; read-out: KRAS Q61H FRET data IC50
Sequence of KRAS Q61H (P01116-2 other isoform, or with tags, fused parts or gaps Q61H): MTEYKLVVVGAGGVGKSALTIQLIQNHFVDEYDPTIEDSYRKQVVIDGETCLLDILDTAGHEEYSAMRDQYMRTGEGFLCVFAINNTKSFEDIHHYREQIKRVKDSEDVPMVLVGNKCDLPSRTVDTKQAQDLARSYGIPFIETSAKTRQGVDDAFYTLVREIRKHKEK
Sequence of KRAS Q61H (P62937 whole entry): as the sequence (P62937 whole entry) above
Summary of the method: (§2)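 Compounds were tested as a 10-point 3-fold dilution series from 30 μM final for their ability to drive ternary complex formation between nucleotide-loaded Ras and cyclophilin A, displacing the BRAF RBD. After 3 h at 25° C., anti-His Eu-W1024 (10 nM) and anti-GST allophycocyanin (50 nM) were added for 1.5 h. A TR-FRET ratio decrease versus DMSO gave IC50.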

[4] = molecular target: NRAS G12C (Homo sapiens (Human), UniProt P01111+P62937, G12C); assay: Ras-Raf (BRAF RBD) disruption / FRET / MOA assay, NRAS G12C; format: biochemical; settings: read-out: IC50* NRAS G12C FRET data
Sequence of NRAS G12C (P01111 whole entry G12C): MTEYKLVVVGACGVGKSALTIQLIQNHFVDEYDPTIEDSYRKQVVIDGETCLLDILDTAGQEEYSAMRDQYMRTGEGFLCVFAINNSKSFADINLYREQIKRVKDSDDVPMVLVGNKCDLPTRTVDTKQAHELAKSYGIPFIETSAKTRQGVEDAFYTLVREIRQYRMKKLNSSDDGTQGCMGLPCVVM
Sequence of NRAS G12C (P62937 whole entry): as the sequence (P62937 whole entry) above
Summary of the method: as §1

[5] = molecular target: NRAS Q61R (Homo sapiens (Human), UniProt P01111+P62937, Q61R); assay: Ras-Raf (BRAF RBD) disruption / FRET / MOA assay, NRAS Q61R; format: biochemical; settings: NRAS Q61R; Ras-Raf disruption/FRET/MOA assay; read-out: IC50* NRAS Q61R FRET data
Sequence of NRAS Q61R (P01111 whole entry Q61R): as the sequence (P01111 whole entry G12C) above, with C12G, Q61R counted along it
Sequence of NRAS Q61R (P62937 whole entry): as the sequence (P62937 whole entry) above
Summary of the method: as §2

[6] = molecular target: NRAS WT (Homo sapiens (Human), UniProt P01111+P62937); assay: Ras-Raf (BRAF RBD) disruption / FRET / MOA assay, NRAS WT; format: biochemical; settings: read-out: IC50* NRAS WT FRET data
Sequence of NRAS WT (P01111 whole entry): as the sequence (P01111 whole entry G12C) above, with C12G counted along it
Sequence of NRAS WT (P62937 whole entry): as the sequence (P62937 whole entry) above
Summary of the method: as §2

Structure (SMILES)	EC50 [1] [µM]	IC50 [2]	IC50 [3] [nM]	IC50 [4] [nM]	IC50 [5] [nM]	IC50 [6] [nM]
CCn1c(-c2cccnc2[C@H](C)OC)c2c3cc(ccc31)-c1cnc(o1)C[C@H](NC(=O)[C@H](C(C)C)N(C)C(=O)[C@H]1CCN(C(=O)C#CC(C)(C)N(C)C)C1)C(=O)N1CCC[C@H](N1)C(=O)OCC(C)(C)C2 (atropisomer, axis not shown) [Example A692, (3S)-1-(4-(dimethylamino)-4-methylpent-2-ynoyl)-N-((2S)-1-(((6^3S,4S)-1^1-ethyl-1^2-(2-((S)-1-methoxyethyl)pyridin-3-yl)-10,10-dimethyl-5,7-dioxo-6^1,6^2,6^3,6^4,6^5,6^6-hexahydro-1^1H-8-oxa-2(5,2)-oxazola-1(5,3)-indola-6(1,3)-pyridazinacycloundecaphane-4-yl)amino)-3-methyl-1-oxobutan-2-yl)-N-methylpyrrolidine-3-carboxamide]	< 5	100 to 1000 nM	1000 to 10000	< 10	> 10000	> 10000
C=CC(=O)N1CCOC2(CCN(C(=O)N(C)[C@H](C(=O)N[C@H]3Cc4nc(cs4)-c4ccc5c(c4)c(c(-c4cccnc4[C@H](C)OC)n5CC)CC(C)(C)COC(=O)[C@@H]4CCCN(N4)C3=O)C(C)C)CC2)C1 (atropisomer, axis not shown) [Example A695]	< 5	10 to 100 nM	100 to 1000	10 to 100	100 to 1000	100 to 1000
C=CC(=O)N1CCC2(CC1)CCN(C(=O)N(C)[C@H](C(=O)N[C@H]1Cc3nc(cs3)-c3ccc4c(c3)c(c(-c3cccnc3[C@H](C)OC)n4CC)CC(C)(C)COC(=O)[C@@H]3CCCN(N3)C1=O)C(C)C)CC2 (atropisomer, axis not shown) [Example A697]	< 5	100 to 1000 nM	10 to 100	10 to 100	10 to 100	10 to 100
C=CC(=O)N1CCC(F)(C(=O)N(C)[C@H](C(=O)N[C@H]2Cc3nc(cs3)-c3ccc4c(c3)c(c(-c3cccnc3[C@H](C)OC)n4CC)CC(C)(C)COC(=O)[C@@H]3CCCN(N3)C2=O)C(C)C)CC1 (atropisomer, axis not shown) [Example A700]	< 5	100 to 1000 nM	100 to 1000	10 to 100	100 to 1000	100 to 1000
CO[C@@H](C)c1ncccc1-c1c2c3cc(ccc3n1CC(F)(F)F)-c1cnc(o1)C[C@H](NC(=O)[C@H](C(C)C)N(C)C(=O)[C@H]1CCN(C(=O)C#CC(C)(C)N(C)C)C1)C(=O)N1CCC[C@H](N1)C(=O)OCC(C)(C)C2 (atropisomer, axis not shown) [Example A707]	< 5	100 to 1000 nM	1000 to 10000	< 10	> 10000	1000 to 10000
CO[C@@H](C)c1ncccc1-c1c2c3nc(ccc3n1CC(F)(F)F)-c1cccc(c1)C[C@H](NC(=O)[C@@H](COC1CN(C(=O)C#CC(C)(C)N(C)C)C1)C(C)C)C(=O)N1CCC[C@H](N1)C(=O)OCC(C)(C)C2 (atropisomer, axis not shown) [Example A724]	< 5	> 10000 nM	> 10000	10 to 100	> 10000	> 10000
CCn1c(-c2cccnc2[C@H](C)OC)c2c3cc(ccc31)-c1cccc(c1)C[C@H](NC(=O)[C@H](C(C)C)N1CO[C@@]3(CCN(C(=O)C#CC(C)(C)N4CCC4)C3)C1=O)C(=O)N1CCC[C@H](N1)C(=O)OCC(C)(C)C2 (atropisomer, axis not shown) [Example A733]	< 5	100 to 1000 nM	1000 to 10000	10 to 100	> 10000	> 10000
C=CC(=O)N1CC[C@H](C(=O)N(C)[C@H](C(=O)N[C@H]2Cc3cc(O)cc(c3)-c3ccc4c(c3)c(c(-c3cncc5c3[C@@H](OC)CC5)n4CC)CC(C)(C)COC(=O)[C@@H]3CCCN(N3)C2=O)C(C)C)C1 [Example A275]	< 5	10 to 100 nM	10 to 100	10 to 100	100 to 1000	10 to 100
CCn1c(-c2cccnc2[C@H](C)OC)c2c3cc(ccc31)-c1cccc(c1)C[C@H](NC(=O)C(COC1CN(C(=O)C#CC(C)(C)N(C)C)C1)C(C)C)C(=O)N1CCC[C@H](N1)C(=O)OCC(C)(C)C2 (stereo partly drawn) [Example A316, (2R)-2-(((1-(4-(dimethylamino)-4-methylpent-2-ynoyl)azetidin-3-yl)oxy)methyl)-N-((6^3S,4S)-1^1-ethyl-1^2-(2-((S)-1-methoxyethyl)pyridin-3-yl)-10,10-dimethyl-5,7-dioxo-6^1,6^2,6^3,6^4,6^5,6^6-hexahydro-1^1H-8-oxa-1(5,3)-indola-6(1,3)-pyridazina-2(1,3)-benzenacycloundecaphane-4-yl)-3-methylbutanamide]	< 5	1 µM to 10 µM (2×) and > 10 µM	> 10000	< 10	> 10000	> 10000

Second part, the molecule after the results:

EC50 [1] [µM]	IC50 [2]	IC50 [3] [nM]	IC50 [4] [nM]	IC50 [5] [nM]	IC50 [6] [nM]	Structure (SMILES)
< 5	10 to 100 nM	100 to 1000	10 to 100	100 to 1000	1000 to 10000	C=CC(=O)N1CCO[C@H]2CN(C(=O)N(C)[C@H](C(=O)N[C@H]3Cc4nc(cs4)-c4ccc5c(c4)c(c(-c4cccnc4[C@H](C)OC)n5CC)CC(C)(C)COC(=O)[C@@H]4CCCN(N4)C3=O)C(C)C)C[C@H]21 (atropisomer, axis not shown) [Example A706]
< 5	10 to 100 nM	10 to 100	10 to 100	10 to 100	10 to 100	C=CC(=O)N1CCN(C(=O)N(C)[C@H](C(=O)N[C@H]2Cc3nc(cs3)-c3ccc4c(c3)c(c(-c3cccnc3[C@H](C)OC)n4CC)CC(C)(C)COC(=O)[C@@H]3CCCN(N3)C2=O)C(C)C)[C@@H]2C[C@@H]21 (atropisomer, axis not shown) [Example A736]
< 5	100 to 1000 nM	100 to 1000	10 to 100	1000 to 10000	100 to 1000	C=CC(=O)C1CC[C@H](C(=O)N(C)[C@H](C(=O)N[C@H]2Cc3cc(O)cc(c3)-c3ccc4c(c3)c(c(-c3cnn(C)c3[C@H](C)OC)n4CC)CC(C)(C)COC(=O)[C@@H]3CCCN(N3)C2=O)C(C)C)C1 (stereo partly drawn) [Example A166]
< 5	> 10000 nM	> 10000	> 10000	> 10000	> 10000	C=CC(=O)N1CC[C@H](C(=O)N(C)[C@H](C(=O)N[C@H]2Cc3nc(ns3)-c3ccc4c(c3)c(c(-c3cncnc3)n4CC)CC(C)(C)COC(=O)[C@@H]3CCCN(N3)C2=O)C(C)C)C1 [Example A285]
< 5	10 to 100 nM	10 to 100	< 10	100 to 1000	10 to 100	C=CC(=O)N1CC[C@H](C(=O)N(C)[C@H](C(=O)N[C@H]2Cc3cc(O)cc(c3)-c3ccc4c(c3)c(c(-c3cnn5c3[C@@H](OC)CCC5)n4CC)CC(C)(C)COC(=O)[C@@H]3CCCN(N3)C2=O)C(C)C)C1 [Example A300]
< 5	100 to 1000 nM	100 to 1000	10 to 100	100 to 1000	100 to 1000	C=CC(=O)N1CCC(C(=O)N(C)[C@H](C(=O)N[C@H]2Cc3cc(CF)cc(c3)-c3ccc4c(c3)c(c(-c3cccnc3[C@H](C)OC)n4CC(F)(F)F)CC(C)(C)COC(=O)[C@@H]3CCCN(N3)C2=O)C(C)C)C1 (stereo partly drawn) [Example A659]
< 5	100 to 1000 nM	1000 to 10000	10 to 100	> 10000	1000 to 10000	CCn1c(-c2cccnc2[C@H](C)OC)c2c3cc(ccc31)N1CCO[C@@H](C[C@H](NC(=O)[C@H](C(C)C)N(C)C(=O)[C@@]3(F)CCC(C(=O)C#CC(C)(C)N4CCC4)C3)C(=O)N3CCC[C@H](N3)C(=O)OCC(C)(C)C2)C1 (stereo partly drawn) [Example A726]
